Each structure is given as a SMILES string. Bounds are passed on as bounds.

This assay concerns GM01896 cells (MPS II dermal fibroblasts). The assay can be described thus: Assay 1: MPS cellular assay, MPS II (heparan sulfate disaccharide biomarkers by LC-MS). As to conditions: Homo sapiens, Fibroblast, Assay 1 for MPS II, heparan sulfate disaccharide biomarkers (I2a4, I2a6, I2S0 and/or I2S6), read-out: IC50 Range. The class given is cell-based, human. A digest of the protocol: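 Heparan sulfate disaccharide biomarkers quantified by LC-MS after heparinase I/II/III digestion and isotopic aniline labelling, using GM01896 MPS II fibroblasts exposed to compound (at or below 30 μM, 4-21 days). Values given as IC50 by curve fitting; cell viability checked with alamar blue or ATP.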
Take `Cc1nn(C)c2cc(-c3cc(Nc4ccc5cn[nH]c5c4)nc(N4CCOCC4)n3)ccc12` [1H-indazol-6-yl[6-(1,3-dimethyl(1H-indazol-6-yl))-2-morpholin-4-ylpyrimidin-4-yl]amine]: the IC50 lay in the range of 1 to 5 µM.

Consider `Cc1nn(C)c2cc(-c3cc(Nc4ccc(-c5nccn5C)cc4)nc(N4CCOCC4)n3)ccc12` [[6-(1,3-dimethyl(1H-indazol-6-yl))-2-morpholin-4-ylpyrimidin-4-yl][4-(1-methylimidazol-2-yl)phenyl]amine], for which the IC50 was less than 0.5 µM.

`Cn1cnc2cc(Nc3cc(-c4ccc5cnn(C)c5c4)nc(N4CCOCC4)n3)ccc21` [[6-(1-methyl(1H-indazol-6-yl))-2-morpholin-4-ylpyrimidin-4-yl](1-methylbenzimidazol-5-yl)amine]: the IC50 fell in the range of 1 to 5 µM.

With `CN(C)CCCc1nn(C)c2cc(-c3cc(Nc4ccc5ccn(C)c5c4)nc(N4CCOCC4)n3)ccc12` [dimethyl[3-(1-methyl-6-{6-[(1-methylindol-6-yl)amino]-2-morpholin-4-ylpyrimidin-4-yl} (1H-indazol-3-yl))propyl]amine], the IC50 was less than 0.5 µM.

With `COCCc1nc2ccc(-c3cc(Nc4ccc(Cl)cc4)nc(N4CCOCC4)n3)cc2n1C` [(4-chlorophenyl){6-[2-(2-methoxyethyl)-1-methylbenzimidazol-6-yl]-2-morpholin-4-ylpyrimidin-4-yl}amine], the IC50 is 0.5 to 1 µM.

As to `Clc1ccc(Nc2cc(-c3cccc4[nH]ncc34)nc(N3CCOCC3)n2)cc1` [N-(4-chlorophenyl)-6-(1H-indazol-4-yl)-2-morpholinopyrimidin-4-amine], the IC50 is 0.5 to 1 µM.

For the molecule `Clc1ccc(Nc2cc(-c3ccc4ncn(CCN5CCOCC5)c4c3)nc(N3CCOCC3)n2)cc1` [(4-chlorophenyl){2-morpholin-4-yl-6-[1-(2-morpholin-4-ylethyl)benzimidazol-6-yl]pyrimidin-4-yl}amine], the IC50 is less than 0.5 µM.

Turning to `Cn1ncc2ccc(-c3cc(Nc4ccc5ncoc5c4)nc(N4CCOCC4)n3)cc21` [benzoxazol-6-yl[6-(1-methyl(1H-indazol-6-yl))-2-morpholin-4-ylpyrimidin-4-yl]amine], the IC50 is 1 to 5 µM.

Regarding `CNC(=O)c1ccc(Nc2cc(-c3ccc4[nH]ncc4c3)nc(N3CCOCC3)n2)cn1` [{5-[(6-(1H-indazol-5-yl)-2-morpholin-4-ylpyrimidin-4-yl)amino](2-pyridyl)}-N-methylcarboxamide], the IC50 fell in the range of 0.5 to 1 µM.

For the molecule `CNC(=O)c1ccc(Nc2cc(-c3ccc4cn[nH]c4c3)nc(N3CCOCC3)n2)cn1` [{5-[(6-(1H-indazol-6-yl)-2-morpholin-4-ylpyrimidin-4-yl)amino](2-pyridyl)}-N-methylcarboxamide], the IC50 was 0.5 to 1 µM.

In the case of `Cc1nnc(-c2ccc(Nc3cc(-c4ccc5nc(C)n(CC6CC6)c5c4)nc(N4CCOCC4)n3)cc2)[nH]1` [{6-[1-(cyclopropylmethyl)-2-methylbenzimidazol-6-yl]-2-morpholin-4-ylpyrimidin-4-yl}[4-(5-methyl(4H-1,2,4-triazol-3-yl))phenyl]amine], the IC50 was less than 0.5 µM.

With `CNC(=O)c1ccc(Nc2cc(-c3ccc4ncn(C5CC5)c4c3)nc(N3CCOCC3)n2)cc1` [(4-{[6-(1-cyclopropylbenzimidazol-6-yl)-2-morpholin-4-ylpyrimidin-4-yl]amino}phenyl)-N-methylcarboxamide], the IC50 was less than 0.5 µM.

`CNC(=O)c1ccc(Nc2cc(-c3ccc4ncn(CCN5CCOCC5)c4c3)nc(N3CCOCC3)n2)cc1` [N-methyl[4-({2-morpholin-4-yl-6-[1-(2-morpholin-4-ylethyl)benzimidazol-6-yl]pyrimidin-4-yl}amino)phenyl]carboxamide]: the IC50 fell in the range of 0.5 to 1 µM.

For the molecule `Cc1nn(C)c2nc(-c3cc(Nc4ccc(Cl)cc4)nc(N4CCOCC4)n3)ccc12` [[6-(1,3-dimethylpyrazolo[4,5-e]pyridin-6-yl)-2-morpholin-4-ylpyrimidin-4-yl](4-chlorophenyl)amine], the IC50 lay in the range of 1 to 5 µM.

As for `Cc1nn(C)c2cc(-c3cc(Nc4ccc(-c5nnc(C6CC6)[nH]5)cc4)nc(N4CCOCC4)n3)ccc12` [[6-(1,3-dimethyl(1H-indazol-6-yl))-2-morpholin-4-ylpyrimidin-4-yl][4-(5-cyclopropyl(4H-1,2,4-triazol-3-yl))phenyl]amine], the IC50 was less than 0.5 µM.

Take `Cc1cc2ccc(Nc3cc(-c4ccc5c(CCN6CCOCC6)nn(C)c5c4)nc(N4CCOCC4)n3)cc2n1C` [(1,2-dimethylindol-6-yl){6-[1-methyl-3-(2-morpholin-4-ylethyl)(1H-indazol-6-yl)]-2-morpholin-4-ylpyrimidin-4-yl}amine]: the IC50 was 0.5 to 1 µM.

Turning to `Cn1ncc2ccc(-c3cc(Nc4ccc(-c5nc[nH]n5)cc4)nc(N4CCOCC4)n3)cc21` [[6-(1-methyl(1H-indazol-6-yl))-2-morpholin-4-ylpyrimidin-4-yl](4-(1,2,4-triazolyl)phenyl)amine], the IC50 lay within 0.5 to 1 µM.

`Cn1nc(NCCN2CCOCC2)c2ccc(-c3cc(Nc4ccc(Cl)cc4)nc(N4CCOCC4)n3)cc21` [(4-chlorophenyl)(6-{1-methyl-3-[(2-morpholin-4-ylethyl)amino](1H-indazol-6-yl)}-2-morpholin-4-ylpyrimidin-4-yl)amine]: the IC50 fell in the range of 0.5 to 1 µM.

On to `Cn1cnc2ccc(-c3cc(Nc4ccc(S(N)(=O)=O)cc4)nc(N4CCOCC4)n3)cc21` [4-{[6-(1-methylbenzimidazol-6-yl)-2-morpholin-4-ylpyrimidin-4-yl]amino}benzenesulfonamide], for which the IC50 was in the range of 1 to 5 µM.

As for `CNC(=O)c1ccc(Nc2cc(-c3ccc4nc(C)n(C5CC5)c4c3)nc(N3CCOCC3)n2)cc1` [(4-{[6-(1-cyclopropyl-2-methylbenzimidazol-6-yl)-2-morpholin-4-ylpyrimidin-4-yl]amino}phenyl)-N-methylcarboxamide], the IC50 is less than 0.5 µM.

For the molecule `Cn1cnc2ccc(-c3cc(Nc4ccc(NS(C)(=O)=O)cc4)nc(N4CCOCC4)n3)cc21` [(4-{[6-(1-methylbenzimidazol-6-yl)-2-morpholin-4-ylpyrimidin-4-yl]amino}phenyl)(methylsulfonyl)amine], the IC50 fell in the range of 1 to 5 µM.

Take `CNC(=O)c1ccc(Nc2cc(-c3ccc4ncn(CCN5CCCC5)c4c3)nc(N3CCOCC3)n2)cc1` [N-methyl[4-({2-morpholin-4-yl-6-[1-(2-pyrrolidinylethyl)benzimidazol-6-yl]pyrimidin-4-yl}amino)phenyl]carboxamide]: the IC50 lay within 1 to 5 µM.

With `COCCNc1nc2ccc(-c3cc(Nc4ccc(Cl)cc4)nc(N4CCOCC4)n3)cc2n1C` [(4-chlorophenyl)(6-{2-[(2-methoxyethyl)amino]-1-methylbenzimidazol-6-yl}-2-morpholin-4-ylpyrimidin-4-yl)amine], the IC50 lay within 0.5 to 1 µM.

As to `Cn1cnc(-c2ccc(Nc3cc(-c4ccc5cnn(C)c5c4)nc(N4CCOCC4)n3)cc2)c1` [[6-(1-methyl(1H-indazol-6-yl))-2-morpholin-4-ylpyrimidin-4-yl][4-(1-methylimidazol-4-yl)phenyl]amine], the IC50 lay within 0.5 to 1 µM.

On to `Cn1ncc2ccc(-c3cc(Nc4ccc(-c5ncc[nH]5)cc4)nc(N4CCOCC4)n3)cc21` [(4-imidazol-2-ylphenyl)[6-(1-methyl(1H-indazol-6-yl))-2-morpholin-4-ylpyrimidin-4-yl]amine], for which the IC50 was less than 0.5 µM.

As for `Cn1cnnc1-c1ccc(Nc2cc(-c3ccc4cnn(C)c4c3)nc(N3CCOCC3)n2)cc1` [[4-(4-methyl(1,2,4-triazol-3-yl))phenyl][6-(1-methyl(1H-indazol-6-yl))-2-morpholin-4-ylpyrimidin-4-yl]amine], the IC50 was 1 to 5 µM.

In general, IC50 refers to the concentration needed to halve the response being measured.

The values are drawn from patent publication US20190151312A1, “HEPARAN SULFATE BIOSYNTHESIS INHIBITORS FOR THE TREATMENT OF DISEASES” (BioMarin Pharmaceutical Inc., priority 2014, published 2019).
